In the test the test system is OG2 MEFs transduced with OK (Oct4 and Klf4). In words: iPSC generation from OK-transduced OG2 MEFs (GFP+ colonies), including second synergist screen with BIX. It counts as cell-based, mouse. The settings on record: OK transduced OG2 MEFs; 3 independent experiments, standard deviation; OK alone 0.5±0.7. As for the experimental part: Primary 129S2/SvPasCrlf (primary screen) or ROSA26^+/−/OG2^+/− (secondary screen) MEFs were plated onto Matrigel (1:50; BD Biosciences, Bedford, Mass.) coated dishes at a density of 3.5×10^4 cells per well of a 6-well plate. Twenty-four hours later, these cells were transduced overnight with defined retroviruses at 37° C., 5% CO2. Twelve to fourteen hours later, the media on the transduced cells was changed to mESC medium [Knockout DMEM, 10% ES-qualified FBS, 10% Knockout serum replacement, 1% Glutamax, 1% Non-essential amino acids, penicillin/streptomycin, 0.1 mM β-mercaptoethanol, 1% EmbryoMax ESC Qualified Nucleosides (Millipore, Temecula, Calif.), and 10^3 U/ml LIF (Millipore)] (all products were from Invitrogen, Carlsbad, Calif., except where mentioned). On that same day, individual small molecules from our known drug collection were added to the cells at a range between 0.5 and 2 μM. Compound treatment was continued for 10-14 days; the cells were fixed and stained on day 14-21 using a standard ALP detection kit (Millipore). For the second screen, 1 μM BIX was added to the mESC medium 1 day after transduction. Five days later, in addition to 1 μM BIX, individual small molecule from the known drug collection was added to each well, at a range between 0.5 and 2 μM. Mouse ESC media with defined small molecules was refreshed every three days until colonies with a similar morphology to mESCs were observed, which was usually between 14-21 days after transduction. […] Further characterization studies and repeats were carried either on primary 129S2/SvPasCrlf or ROSA26^+/−/OG2^+/− MEFs. When ROSA26^+/−/OG2^+/− MEFs were used, the iPSC colonies could also be identified through GFP expression, as a marker of Oct4 expression. Once iPSC colonies were identified, they were picked for expansion on MEF feeder cells in mESC medium.

The values that follow come from patent publication US9540615B2, “Combined chemical and genetic approaches for generation of induced pluripotent stem cells” (The Scripps Research Institute, priority 2008, dated 2017).

For the compound `COc1cc2nc(N3CCCN(C)CC3)nc(NC3CCN(Cc4ccccc4)CC3)c2cc1OC` [BIX01294], the “number of GFP+ colonies (reprogramming efficiency)” value was 2.5±0.7 colonies per 3.5×10^4 cells.
